According to patent US20110293653A1, “ANTAGONISTS OF MIR-155 FOR THE TREATMENT OF INFLAMMATORY LIVER DISEASE” (UNIVERSITY OF MASSACHUSETTS, priority 2010, published 2011):
Entries after “also recorded” stand apart in the source; their conditions may differ. Where a SMILES comes first, the peptide text is derived from it. The star is where a group is joined. Cbz = O=C(OCc1ccccc1)*

Test system: miR155
Assay: miR155 expression (qPCR) in RAW cells after ethanol and/or LPS stimulation with NF-κB inhibitor
Format: cell-based
Conditions: RAW cells pretreated 48 h with ethanol (50 mM) and MG-132 (0.25 μM) or Bay 11-7082 (0.1 uM), LPS 100 ng/mL 2 h
Description: FIG. 8. […] RAW cells were exposed or not to ethanol (50 mM) and MG-132 (0.25 μM) for 48 hours and were further stimulated with LPS (100 ng/mL) for 2 hours. Expression of miR155 was assayed by qPCR and data were normalized to sno202 control. The fold increase in the expression of miR155 versus nonstimulated cells is shown. Data represent the mean value (s.e.m. as error bars) of at least three independent experiments. Statistically significant differences are shown.
C. Cell culture and reagents. RAW 264.7 macrophages were purchased from American Type Culture Collection and maintained in Dulbecco's modified medium (Invitrogen Life Technologies, Carlsbad, Calif.) containing 10% FBS (HyClone, South Logan, Utah) at 37° C. in a 5% CO2 atmosphere. […]
E. RNA analysis. RNA was purified using the RNeasy kit (Qiagen Sciences, Maryland, USA) or mirVana™ miRNA Isolation Kit (Ambion) if miRs were to be analyzed. […] Quantitative RT-PCR analyses for miR-125b, miR-146aa, miR155 and sno202, used as normalizing control, were performed using TaqMan miRNA assays with reagents, primers, and probes obtained from Ambion. […] Real-time quantitative polymerase chain reaction was performed using the iCycler (Bio-Rad Laboratories Inc., Hercules, Calif.), as described previously (Romics et al., supra). […] Relative expression was calculated using the comparative threshold cycle (Ct) method. […]

SMILES | miR155 levels after ethanol and/or LPS stimulation
Cc1ccc(S(=O)(=O)/C=C/C#N)cc1 [Bay 11-7082] | decrease
CC(C)C[C@@H](C=O)NC(=O)[C@H](CC(C)C)NC(=O)[C@H](CC(C)C)NC(=O)OCc1ccccc1 [MG-132] (Cbz-Leu-Leu-Leu-aldehyde) | decrease; also recorded: prevented miR155 increase
